What was measured:
[1] = biological target: T1, Tyrosinekinase of the EGF (Epidermal Growth Factor) Receptor (Homo sapiens, UniProt P00533); assay: Inhibition of tyrosinekinase of the EGF receptor (A431 cell membranes); type: biochemical; details: membranes of A431 cells; samples containing poly(Glu, Ala, Tyr 6:3:1) substrate and EGF; 15 minutes at 30° C.; read-out: IC50, concentration of substance which inhibits the enzyme activity by 50% (converted)
T1 construct: Membranes of A431 cells (ATCC CRL 1555) are used as the source of EGF receptors; endogenous in cells; host or cells: A431 cell membranes (ATCC CRL 1555)
Experimental: 1 - Measurement of the Inhibition of Tyrosinekinase of the EGF (Epidermal Growth Factor) Receptor
Membranes of A431 cells (ATCC CRL 1555) are used as the source of EGF receptors. This cellular lineage expresses a large number of EGF receptors at its surface which have a tyrosinekinase activity.
These cells are pre-incubated with or without EGF (1000 nM) for 15 minutes and are added to a corresponding HEPES buffer (N-2-hydroxyethyl-piperazine-N'-2-ethanesulphonic acid) (with or without EGP) and containing Mg^2+ (10 mM) and Mn^2+ (2 mM) ions, 0.2% of X-100 triton, sodium orthovanadate (20 micromoles) and the inhibitor.
Samples either containing or not containing the poly substrate (Glu, Ala, Tyr 6:3:1) are prepared. The reaction is initiated by the addition of [gamma P^32 ] ATP (32 micromoles). After incubation for 15 minutes at 30° C. the samples are precipitated using 10% […], followed by filtering on a millipore membrane and the incorporated P^32 is measured with a liquid scintillation counter.
The results are expressed in IC50, that is the concentration of substance which inhibits the enzyme activity by 50%, determined by a series of dilutions starting at 51 micrograms/ml in the samples containing the substrate and EGF.

[2] = tested on: catalytic sub-unit of the proteinkinase dependent on cyclic 3',5'-AMP; assay: Inhibition of the proteinkinase dependent on cyclic 3',5'-AMP; type: biochemical; details: inhibitor 40 micrograms/ml; KEMPTID substrate; pH 6.9; 15 minutes at 30° C.
Experimental: 2 - Measurement of the Inhibition of the Proteinkinase Dependent on Cyclic 3',5'-AMP
The catalytic sub-unit of the proteinkinase dependent on cyclic 3',5'-AMP was reconstituted as indicated in SIGMA®. The enzyme activity was measured using KEMPTID® (SIGMA®) as substrate (KEMPTID - Leu-Arg-Arg-Ala-Ser-Leu-Gly).
The inhibitor is pre-incubated at pH 6.9 with the enzyme, the substrate (190 micromoles), Mg^+2 (5 mM), 0.25 mg/ml of BSA (Bovine Serum Albumin) and 3.75 mM of mercaptoethanol in 50 mM of 4-morpholinopropanesulphonic acid.
The reaction is initiated using gamma P^32 ATP (40 micromoles). After 15 minutes at 30° C. an aliquot is placed on an ion-exchange paper ([…]; WHATMAN®) plunged into phosphoric acid (75 mM), washed, dried and the incorporation of P^32 is measured using a liquid scintillation counter.
The results are expressed as a percentage of the enzyme activity inhibition at a concentration of inhibitor of 40 micrograms/ml.

T1 sequence (P00533 25-1210): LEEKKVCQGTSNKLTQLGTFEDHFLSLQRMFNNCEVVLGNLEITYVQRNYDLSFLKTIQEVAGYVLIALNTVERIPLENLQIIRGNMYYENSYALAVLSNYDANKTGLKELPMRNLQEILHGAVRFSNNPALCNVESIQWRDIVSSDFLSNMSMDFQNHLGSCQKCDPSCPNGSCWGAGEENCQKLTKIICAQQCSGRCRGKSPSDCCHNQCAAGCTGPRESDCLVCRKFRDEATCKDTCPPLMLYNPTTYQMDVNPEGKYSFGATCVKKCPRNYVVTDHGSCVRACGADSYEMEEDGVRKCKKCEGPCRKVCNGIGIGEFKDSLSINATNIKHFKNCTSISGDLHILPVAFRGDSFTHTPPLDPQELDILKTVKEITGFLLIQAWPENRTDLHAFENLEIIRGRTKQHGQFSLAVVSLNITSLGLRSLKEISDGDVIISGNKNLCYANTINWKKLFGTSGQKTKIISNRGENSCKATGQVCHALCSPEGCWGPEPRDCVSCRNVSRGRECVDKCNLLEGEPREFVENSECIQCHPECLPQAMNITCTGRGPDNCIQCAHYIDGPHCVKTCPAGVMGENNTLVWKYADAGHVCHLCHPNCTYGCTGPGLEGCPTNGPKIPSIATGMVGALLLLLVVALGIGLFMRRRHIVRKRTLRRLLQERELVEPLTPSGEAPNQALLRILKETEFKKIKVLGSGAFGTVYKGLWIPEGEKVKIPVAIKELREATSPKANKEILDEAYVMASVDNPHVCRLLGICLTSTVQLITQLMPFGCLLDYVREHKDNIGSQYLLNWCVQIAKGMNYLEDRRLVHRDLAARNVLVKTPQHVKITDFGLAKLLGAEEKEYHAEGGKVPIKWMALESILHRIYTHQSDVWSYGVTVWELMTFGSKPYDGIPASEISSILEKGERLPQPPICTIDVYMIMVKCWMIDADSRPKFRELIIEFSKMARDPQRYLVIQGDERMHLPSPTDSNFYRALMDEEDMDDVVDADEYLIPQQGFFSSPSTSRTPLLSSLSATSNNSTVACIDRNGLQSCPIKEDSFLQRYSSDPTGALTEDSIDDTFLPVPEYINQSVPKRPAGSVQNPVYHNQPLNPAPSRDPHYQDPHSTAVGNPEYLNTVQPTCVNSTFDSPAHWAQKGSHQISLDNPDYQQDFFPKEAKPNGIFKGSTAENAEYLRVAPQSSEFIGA
T1 sequence (P01133 971-1023 partner limits assumed): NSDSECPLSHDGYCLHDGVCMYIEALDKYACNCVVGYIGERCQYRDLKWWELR

| IC50 [1] [nM] | percentage of the enzyme activity inhibition [2] [%] | Compound |
| --- | --- | --- |
| 2350 | 19 | CN(C)C1Cc2ccc(O)c(O)c2-c2ccccc21 (stereo not shown) [Product A, 3,4-dihydroxy-9-dimethylamino-9,10-dihydrophenanthrene] |
| 621 | 18 | Br.CNC1Cc2ccc(O)c(O)c2-c2ccccc21 (stereo not shown) [Example 3, 3,4-dihydroxy-9-methylamino-9,10-dihydrophenanthrene (hydrobromide)] |

Source: patent US5189065A, “Use of derivatives of 9,10-dihydrophenanthrene for the preparation of an anti-tumor medicament” (Roussel Uclaf, priority 1989, dated 1993)
